# Test results published in patent publication US7371733B2, “Anti bacterial compounds” (Utah State University, priority 2006, dated 2008).
# Like-named read-outs stand apart in the source and are kept apart here.
# Tests used:
# [1] = system: K. pneumoniae (ATCC 13883); test: MIC, standard reference strain; conditions: for MIC: Klebsiella pneumoniae, ATCC13883, read-out: Minimum Inhibitory Concentrations (MIC); for Minimum Inhibitory Concentrations (MIC): Table 2 entry 6, K. pneumoniae (ATCC 13883)
# Source text: (§1) E. coli (pSF815) and E. coli (pTZ19U-3) are laboratory resistant strains using E. coli (TG1) as the host.
# [2] = system: Klebsiella pneumoniae (ATCC 700603); test: microbe, parasite or virus in culture; conditions: ATCC700603, read-out: Minimum Inhibitory Concentrations (MIC)
# Source text: as §1
# E. coli (TG1) (pTZ19U-3) [3] = test: microbe, parasite or virus in culture; conditions: Escherichia coli
# Procedure: (§2) After the synthesis was completed, both representative aminoglycosides were assayed in standard dilution and diffusion assay against aminoglycoside susceptible and resistant strains of Escherichia coli using amikacin, kanamycin, ribostamycin, and butirosin as the controls. One resistant strain is equipped with the pTZ19-3 plasmid encoded for APH(3′)-I, which renders resistance to kanamycin, neomycin, lividomycin, paromomycin, and ribostamycin. The other resistant strain is equipped with the pSF815 plasmid encoded for AAC(6′) and APH(2″), which produces a bifunctional enzyme that catalyzes acetylation of amino group at C-6′ and phosphorylation of hydroxyl group at C-2″ position. This bifunctional enzyme enables bacteria to acquire resistance against gentamycin, amikacin, tobramycin, netilmicin, and kanamycin.
# as §1
# [4] = system: Escherichia coli (ATCC 25922); test: MIC, standard reference strain; conditions: for MIC: Escherichia coli, ATCC25922, read-out: Minimum Inhibitory Concentrations (MIC); for Minimum Inhibitory Concentrations (MIC): Table 2 entry 1, Escherichia coli (ATCC 25922)
# Source text: as §1
# [5] = system: Staphylococcus aureus (ATCC 33591) (MRSA); test: MIC, methicillin-resistant S. aureus; conditions: for MIC: Staphylococcus aureus, ATCC33591|MRSA, read-out: Minimum Inhibitory Concentrations (MIC); for Minimum Inhibitory Concentrations (MIC): Table 2 entry 7, Staphylococcus aureus (ATCC 33591) (MRSA)
# Source text: as §1
# S. aureus (ATCC 25923) = test: MIC, standard reference strain; conditions: for MIC: Staphylococcus aureus, ATCC25923, read-out: Minimum Inhibitory Concentrations (MIC); for Minimum Inhibitory Concentrations (MIC): Table 2 entry 8, S. aureus (ATCC 25923)
# E. coli (TG1) = test: MIC, standard dilution and diffusion assay, aminoglycoside susceptible strain; conditions: for MIC: Escherichia coli; for Minimum Inhibitory Concentrations (MIC): Table 2 entry 2, E. coli (TG1) aminoglycoside susceptible strain
# Procedure: as §2, §1
# [6] = system: Pseudomonas aeruginosa (ATCC 27853); test: microbe, parasite or virus in culture; conditions: ATCC27853, read-out: Minimum Inhibitory Concentrations (MIC)
# Source text: as §1
# E. coli (TG1) (pSF815) [7] = test: microbe, parasite or virus in culture; conditions: Escherichia coli
# Procedure: as §2, §1
# [8] = system: Pseudomonas aeruginosa (ATCC 27853); conditions: for Minimum Inhibitory Concentrations (MIC): Table 2 entry 9, Pseudomonas aeruginosa (ATCC 27853)
# Source text: as §1
# E. coli (TG1) (pTZ19U-3) [9] = conditions: for Minimum Inhibitory Concentration: Table 1, E. coli (TG1) (pTZ19U-3), plasmid encoded for APH(3′)-I; for Minimum Inhibitory Concentrations (MIC): Table 2 entry 4, E. coli (TG1) pTZ19U-3 plasmid encoded for APH(3′)-I
# Procedure: as §2, §1
# [10] = system: Klebsiella pneumoniae (ATCC 700603); conditions: Table 2 entry 5
# Source text: as §1
# E. coli (TG1) (pSF815) [11] = conditions: for Minimum Inhibitory Concentration: Table 1, E. coli (TG1) (pSF815), plasmid encoded for AAC6′/APH2″; for Minimum Inhibitory Concentrations (MIC): Table 2 entry 3, E. coli (TG1) pSF815 plasmid encoded for AAC(6′)/APH(2″)
# Procedure: as §2, §1
# [12] = read-out: Minimum Inhibitory Concentration
# [13] = read-out: Minimum Inhibitory Concentrations (MIC)
molecule,measurement,setting,value
"NCC[C@H](O)C(=O)N[C@@H]1C[C@H](N)[C@@H](O[C@H]2O[C@H](CN)[C@@H](O)[C@H](O)[C@H]2O)[C@H](O)[C@H]1O[C@H]1O[C@H](CO)[C@@H](O)[C@H](N)[C@H]1O [Amikacin, amikacin]",MIC,[1],1 µg/mL
same,MIC,[2],0.5 to 1 µg/mL
same,MIC,E. coli (TG1) (pTZ19U-3) [3]; [12],0.5 µg/mL
same,MIC,E. coli (TG1) (pTZ19U-3) [3]; [13],0.5 µg/mL
same,MIC,[4],1 µg/mL
same,MIC,[5],16 µg/mL
same,MIC,S. aureus (ATCC 25923),1 µg/mL
same,MIC,E. coli (TG1); [12],1 µg/mL
same,MIC,E. coli (TG1); [13],1 µg/mL
same,MIC,[6],0.5 to 1 µg/mL
same,MIC,E. coli (TG1) (pSF815) [7]; [12],1 µg/mL
same,MIC,E. coli (TG1) (pSF815) [7]; [13],1 µg/mL
CC1O[C@@H](O[C@@H]2C(O)[C@H](NC(=O)[C@@H](O)CCN)CC(N)[C@H]2O[C@H]2OC(CN)[C@@H](O)[C@H](O)C2N)C(O)[C@@H](O)[C@@H]1N (stereo partly shown) [JT005],MIC,[1],2 µg/mL
same,MIC,[2],1 to 2 µg/mL
same,Minimum Inhibitory Concentrations (MIC),[8],Inactive
same,MIC,E. coli (TG1) (pTZ19U-3) [3]; [12],4 µg/mL
same,MIC,E. coli (TG1) (pTZ19U-3) [3]; [13],4 µg/mL
same,Minimum Inhibitory Concentrations (MIC),[5],Inactive
same,MIC,E. coli (TG1); [12],4 µg/mL
same,MIC,E. coli (TG1); [13],4 µg/mL
same,MIC,E. coli (TG1) (pSF815) [7]; [12],4 µg/mL
same,MIC,E. coli (TG1) (pSF815) [7]; [13],4 µg/mL
CC1O[C@@H](O[C@H]2C(O[C@H]3OC(CN)[C@@H](O)[C@H](O)C3N)C(N)C[C@@H](NC(=O)[C@@H](O)CCN)C2OCCN)C(O)[C@@H](O)[C@@H]1N (stereo partly shown) [JT050],MIC,E. coli (TG1) (pTZ19U-3) [3]; [12],4 µg/mL
same,MIC,E. coli (TG1); [12],8 µg/mL
same,MIC,E. coli (TG1) (pSF815) [7]; [12],2 µg/mL
"CC1O[C@@H](O[C@H]2C(O[C@H]3OC(CN)CCC3N)C(N)C[C@@H](N)C2O)C(O)[C@@H](O)[C@@H]1N (stereo partly shown) [RR501, 3′,4′-Dideoxy Pyranmycin]",MIC,[1],2 to 4 µg/mL
same,MIC,[2],2 to 4 µg/mL
same,Minimum Inhibitory Concentrations (MIC),[8],Inactive
same,MIC,E. coli (TG1) (pTZ19U-3) [3]; [12],4 µg/mL
same,MIC,E. coli (TG1) (pTZ19U-3) [3]; [13],4 µg/mL
same,MIC,[5],4 µg/mL
same,"activity against resistant bacteria equipped with APH(3′), in words",E. coli (TG1) (pTZ19U-3) [9]; text statement summarising Table 1,active
same,MIC,E. coli (TG1); [12],8 µg/mL
same,MIC,E. coli (TG1); [13],8 µg/mL
same,MIC,E. coli (TG1) (pSF815) [7]; [12],4 µg/mL
same,MIC,E. coli (TG1) (pSF815) [7]; [13],4 µg/mL
"NC[C@H]1O[C@H](O[C@H]2[C@H](O[C@@H]3O[C@H](CO)[C@@H](O)[C@H]3O)[C@@H](O)[C@H](N)C[C@@H]2N)[C@H](N)[C@@H](O)[C@@H]1O [Ribostamycin, ribostamycin]",MIC,[1],4 µg/mL
same,Minimum Inhibitory Concentrations (MIC),[8],Inactive
same,MIC,E. coli (TG1) (pTZ19U-3) [3]; [13],32 µg/mL
same,MIC,[4],8 µg/mL
same,Minimum Inhibitory Concentrations (MIC),[10],Inactive
same,Minimum Inhibitory Concentrations (MIC),[5],Inactive
same,Minimum Inhibitory Concentration,E. coli (TG1) (pTZ19U-3) [9],Inactive
same,MIC,S. aureus (ATCC 25923),8 µg/mL
same,MIC,E. coli (TG1); [12],2 µg/mL
same,MIC,E. coli (TG1); [13],2 µg/mL
same,MIC,E. coli (TG1) (pSF815) [7]; [12],16 µg/mL
same,MIC,E. coli (TG1) (pSF815) [7]; [13],16 µg/mL
"CC1O[C@@H](O[C@@H]2C(O)C(N)CC(N)C2O[C@H]2OC(CN)[C@@H](O)C(O)C2N)C(O)C(O)[C@@H]1N (stereo partly shown) [TC005, pyranmycin]",MIC,E. coli (TG1) (pTZ19U-3) [3]; [12],8 µg/mL
same,MIC,E. coli (TG1); [12],8 µg/mL
same,Minimum Inhibitory Concentration,E. coli (TG1) (pSF815) [11],Inactive
CC1O[C@@H](O[C@@H]2C(OCCN)C(N)CC(N)C2O[C@H]2OC(CN)[C@@H](O)C(O)C2N)C(O)C(O)[C@@H]1N (stereo partly shown) [TC050],MIC,E. coli (TG1) (pTZ19U-3) [3]; [12],8 µg/mL
same,MIC,E. coli (TG1); [12],8 µg/mL
same,Minimum Inhibitory Concentration,E. coli (TG1) (pSF815) [11],Inactive
C[C@H]1O[C@@H](O[C@@H]2[C@@H](O)[C@H](NC(=O)[C@@H](O)CCN)C[C@H](N)[C@H]2O[C@H]2O[C@H](CN)CC[C@H]2N)[C@H](O)[C@@H](O)[C@@H]1N [pyrankacin],MIC,[1],2 µg/mL
same,MIC,[2],1 µg/mL
same,"activity against P. aeruginosa, in words",[8]; text statement summarising Table 2,active
same,MIC,E. coli (TG1) (pTZ19U-3) [3]; [13],1 µg/mL
same,MIC,[4],4 µg/mL
same,MIC,[5],8 µg/mL
same,MIC,S. aureus (ATCC 25923),2 µg/mL
same,MIC,E. coli (TG1); [13],4 µg/mL
same,MIC,[6],2 µg/mL
same,MIC,E. coli (TG1) (pSF815) [7]; [13],1 µg/mL
butirosin,Minimum Inhibitory Concentrations (MIC),[1],0.5 to 1 µg/mL
same,Minimum Inhibitory Concentrations (MIC),[8],Inactive
same,Minimum Inhibitory Concentrations (MIC),[4],2 µg/mL
same,Minimum Inhibitory Concentrations (MIC),[10],0.5 µg/mL
same,Minimum Inhibitory Concentrations (MIC),[5],Inactive
same,Minimum Inhibitory Concentration,E. coli (TG1) (pTZ19U-3) [9],0.5 µg/mL
same,Minimum Inhibitory Concentrations (MIC),E. coli (TG1) (pTZ19U-3) [9],0.5 µg/mL
same,Minimum Inhibitory Concentrations (MIC),S. aureus (ATCC 25923),2 µg/mL
same,Minimum Inhibitory Concentration,"E. coli (TG1); Table 1, E. coli (TG1)",0.5 µg/mL
same,Minimum Inhibitory Concentrations (MIC),E. coli (TG1),1 µg/mL
same,Minimum Inhibitory Concentration,E. coli (TG1) (pSF815) [11],0.5 µg/mL
same,Minimum Inhibitory Concentrations (MIC),E. coli (TG1) (pSF815) [11],0.25 µg/mL
gentamicin,Minimum Inhibitory Concentrations (MIC),[1],1 µg/mL
same,Minimum Inhibitory Concentrations (MIC),[8],0.5 to 1 µg/mL
same,Minimum Inhibitory Concentrations (MIC),[4],2 µg/mL
same,Minimum Inhibitory Concentrations (MIC),[10],8 to 16 µg/mL
same,Minimum Inhibitory Concentrations (MIC),[5],4 µg/mL
same,Minimum Inhibitory Concentrations (MIC),E. coli (TG1) (pTZ19U-3) [9],1 µg/mL
same,Minimum Inhibitory Concentrations (MIC),S. aureus (ATCC 25923),0.5 µg/mL
same,Minimum Inhibitory Concentrations (MIC),E. coli (TG1),2 µg/mL
same,Minimum Inhibitory Concentrations (MIC),E. coli (TG1) (pSF815) [11],Inactive ^k
neomycin,Minimum Inhibitory Concentrations (MIC),[1],2 µg/mL
same,Minimum Inhibitory Concentrations (MIC),[8],Inactive
same,Minimum Inhibitory Concentrations (MIC),[4],4 µg/mL
same,Minimum Inhibitory Concentrations (MIC),[10],Inactive
same,Minimum Inhibitory Concentrations (MIC),[5],Inactive
same,Minimum Inhibitory Concentrations (MIC),E. coli (TG1) (pTZ19U-3) [9],Inactive
same,Minimum Inhibitory Concentrations (MIC),S. aureus (ATCC 25923),1 µg/mL
same,Minimum Inhibitory Concentrations (MIC),E. coli (TG1),8 µg/mL
same,Minimum Inhibitory Concentrations (MIC),E. coli (TG1) (pSF815) [11],2 µg/mL
